We go through ten molecules from ChEMBL document CHEMBL1201862, “PubChem BioAssay data set” (2004).

Among the test systems are HT-29; A498; HOP-62; MDA-MB-435; KM12; PC-3; A549; COLO 205; SNB-75; T47D; SW-620; BT-549; DU-145; NCI-H522; LOX IMVI; SF-268; SF-539; OVCAR-4; SK-MEL-28; SK-MEL-5.
Assay in all cases: NCI-60 cell line screen, 48 h

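48-hour exposure; five concentrations; linearly interpolated endpoints. GI50: concentration for 50% inhibition of growth.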 Calls of active or inactive are those of the source. Cut-off read from the data, not from the text of the source: active = GI50 up to about 1.1 µM and inactive = higher. Where only a bound is given, the exact number is not on record here.

In the case of `COc1ccc2[nH]c3c(C)c4ccnc(NCCCN(C)CCCNC(=O)NCCCN(C)CCCNc5nccc6c(C)c7[nH]c8ccc(OC)cc8c7c(C)c56)c4c(C)c3c2c1`, the GI50 in the experiment with HT-29 was 0.245 µM (active); in the experiment on A498, 1.39 µM (inactive); in the experiment on HOP-62, 0.419 µM (active); in the experiment with MDA-MB-435, 0.466 µM (active); in the experiment on KM12, 1.03 µM (active); in the experiment on PC-3, 0.92 µM (active). Besides, the GI50 with A549 is 0.249 µM (active); in the experiment on COLO 205, 0.324 µM (active); with SNB-75, 0.402 µM (active); in the experiment on T47D, 0.69 µM (active); in the experiment on SW-620, 0.202 µM (active); in the experiment with BT-549, 1.62 µM (inactive). Also, the GI50 in the experiment with DU-145 was 1.19 µM (inactive); with NCI-H522, 0.226 µM (active); in the experiment with LOX IMVI it was 0.855 µM (active); in the experiment with SF-268, 0.551 µM (active); with SF-539 it was 0.314 µM (active); in the experiment on OVCAR-4, 0.596 µM (active). The figures for the GI50 with SK-MEL-28 and in the experiment with SK-MEL-5 were 1.48 µM (inactive) and 0.774 µM (active), respectively.

Turning to `CC1=NN=C(C)C1/N=N/c1ccc2[nH]c(C)nc2c1`, the GI50 in the experiment with HT-29 was 16 µM (inactive); with A498, 8.39 µM (inactive); with HOP-62, 26.4 µM (inactive); with MDA-MB-435, 16.2 µM (inactive); in the experiment on KM12, 35.4 µM (inactive); with PC-3, 27.7 µM (inactive). Also, the GI50 with A549 is 27.4 µM (inactive); with COLO 205, 29.6 µM (inactive); in the experiment on SNB-75, 22.9 µM (inactive); in the experiment with T47D, 5.11 µM (inactive); with SW-620, 25.3 µM (inactive); in the experiment with BT-549, 20.8 µM (inactive). The GI50 in the experiment on DU-145 was 9.23 µM (inactive); in the experiment on NCI-H522 it was 6.95 µM (inactive); in the experiment on LOX IMVI, 9.1 µM (inactive); in the experiment on SF-268, 10.9 µM (inactive); in the experiment on SF-539, 26.9 µM (inactive); in the experiment on OVCAR-4, 58.1 µM (inactive). Also, the GI50 was 35.6 µM (inactive) with SK-MEL-28 and 18.2 µM (inactive) with SK-MEL-5.

On to `COc1ccc(/C=C2\CCC(C)C3=C2NC(=S)NC3c2ccc(OC)c(OC)c2)cc1OC` (stereo not given), for which the GI50 in the experiment on HT-29 was 26 µM (inactive); in the experiment with A498, > 31.6 µM (inactive); in the experiment on HOP-62 it was > 100 µM (inactive); with MDA-MB-435, 6.3 µM (inactive); in the experiment on KM12, 12 µM (inactive); in the experiment with PC-3, 10.7 µM (inactive). In addition, the GI50 in the experiment on A549 is 16.9 µM (inactive); in the experiment with COLO 205, 8.59 µM (inactive); in the experiment with SNB-75, > 100 µM (inactive); in the experiment with T47D it was 2.33 µM (inactive); in the experiment on SW-620, 26.1 µM (inactive); in the experiment on BT-549 it was 13.3 µM (inactive). In addition, the GI50 with DU-145 is 27.2 µM (inactive); in the experiment on NCI-H522, > 100 µM (inactive); in the experiment on LOX IMVI, 17.4 µM (inactive); in the experiment with SF-268, 25.5 µM (inactive); with SF-539, 27.2 µM (inactive); in the experiment on OVCAR-4 it was 35.4 µM (inactive). Moreover, the values for the GI50 in the experiment with SK-MEL-28 and in the experiment on SK-MEL-5 were > 31.6 µM (inactive) and 12.5 µM (inactive), respectively.

As for `C(=N\NC1=NCCCN1)/c1ccc(-c2cn3cc(/C=N/NC4=NCCCN4)ccc3n2)cc1`, the GI50 in the experiment on HT-29 was 29.3 µM (inactive); in the experiment on A498, > 41.7 µM (inactive); in the experiment with HOP-62, > 79.8 µM (inactive); in the experiment on MDA-MB-435, > 100 µM (inactive); in the experiment with KM12, > 58.1 µM (inactive); in the experiment on PC-3, > 40.1 µM (inactive). Besides, the GI50 was 24.6 µM (inactive) in the experiment with A549; > 100 µM (inactive) with COLO 205; > 81.5 µM (inactive) with SNB-75; > 100 µM (inactive) with T47D; > 100 µM (inactive) in the experiment on SW-620; > 100 µM (inactive) with BT-549. Further, the GI50 with DU-145 is 26.6 µM (inactive); with NCI-H522, > 100 µM (inactive); in the experiment with LOX IMVI, > 100 µM (inactive); in the experiment on SF-268, > 100 µM (inactive); with SF-539, > 61.7 µM (inactive); in the experiment with OVCAR-4, > 100 µM (inactive). For the same molecule, the GI50 in the experiment on SK-MEL-28 and in the experiment on SK-MEL-5 was > 100 µM (inactive) in each case.

For the molecule `[O-][n+]1ccccc1Sc1nc(Sc2cccc[n+]2[O-])nc(Sc2cccc[n+]2[O-])n1`, the GI50 with HT-29 is 1.19 µM (inactive); in the experiment with A498 it was 2.82 µM (inactive); in the experiment on HOP-62, 2.98 µM (inactive); in the experiment on MDA-MB-435, 1.07 µM (active); with KM12, 1.88 µM (inactive); in the experiment with PC-3 it was 0.726 µM (active). Besides, the GI50 in the experiment with A549 is 2.99 µM (inactive); in the experiment on COLO 205 it was 0.386 µM (active); with SNB-75, 4.2 µM (inactive); with T47D it was 2.03 µM (inactive); in the experiment with SW-620 it was 0.248 µM (active); with BT-549, 1.61 µM (inactive). Also, the GI50 was 3.27 µM (inactive) with DU-145; 0.745 µM (active) in the experiment on NCI-H522; 0.92 µM (active) with LOX IMVI; 2.99 µM (inactive) in the experiment with SF-268; 2.06 µM (inactive) in the experiment on SF-539; 1.59 µM (inactive) in the experiment on OVCAR-4. Further, the GI50 in the experiment with SK-MEL-28 is 0.697 µM (active); in the experiment on SK-MEL-5 it was 1.31 µM (inactive).

On to `Oc1ncnc2c1nnn2CCCCCCCCCCCCn1nnc2c(O)ncnc21`, for which the GI50 with HT-29 is > 100 µM (inactive); in the experiment on A498, 25.2 µM (inactive); with HOP-62 it was 21.7 µM (inactive); with MDA-MB-435, > 100 µM (inactive); with KM12, > 100 µM (inactive); with PC-3, > 100 µM (inactive). The GI50 in the experiment with A549 was 36.9 µM (inactive); in the experiment with COLO 205, > 83.4 µM (inactive); in the experiment on SNB-75 it was > 40.9 µM (inactive); with T47D it was 0.641 µM (active); in the experiment with SW-620, > 100 µM (inactive); with BT-549 it was 28.8 µM (inactive). For the same molecule, the GI50 in the experiment on DU-145 was > 100 µM (inactive); with NCI-H522 it was 20.4 µM (inactive); in the experiment with LOX IMVI, 45.8 µM (inactive); in the experiment on SF-268 it was 37.7 µM (inactive); in the experiment with SF-539, 31.7 µM (inactive); in the experiment with OVCAR-4, > 90.6 µM (inactive). The GI50 in the experiment on SK-MEL-28 is > 93.1 µM (inactive); with SK-MEL-5, 19.8 µM (inactive).

As for `Nc1[nH]c(=S)[nH]c(=O)c1/N=N/c1c(Br)cc(S(N)(=O)=O)cc1Br`, the GI50 in the experiment on HT-29, with A498, in the experiment with HOP-62, with MDA-MB-435, with KM12 and in the experiment with PC-3 was > 100 µM (inactive) each time. Moreover, the GI50 in the experiment on A549 was > 100 µM (inactive); in the experiment on COLO 205, > 100 µM (inactive); in the experiment on SNB-75, 35.7 µM (inactive); with T47D, > 100 µM (inactive); in the experiment with SW-620, > 100 µM (inactive); with BT-549, > 100 µM (inactive). Moreover, the GI50 in the experiment with DU-145, with NCI-H522, in the experiment on LOX IMVI, in the experiment with SF-268, with SF-539 and with OVCAR-4 was > 100 µM (inactive) throughout. The GI50 in the experiment on SK-MEL-28 and in the experiment on SK-MEL-5 was > 100 µM (inactive) throughout.

Regarding `C[C@]12CC[C@H]3[C@@H](CC=C4C[C@@H](O)CC[C@@]43C)[C@@H]1CC[C@@H]2N(CCO)CCO`, the GI50 in the experiment on HT-29 was 29 µM (inactive); in the experiment with A498, 16.1 µM (inactive); in the experiment on HOP-62, 51.3 µM (inactive); with MDA-MB-435, 85.9 µM (inactive); with KM12, 54.5 µM (inactive); with PC-3, 50.9 µM (inactive). For the same molecule, the GI50 was 42 µM (inactive) in the experiment on A549; 44.3 µM (inactive) in the experiment with COLO 205; 72.8 µM (inactive) in the experiment on SNB-75; 86.3 µM (inactive) in the experiment with T47D; 41.3 µM (inactive) with SW-620; > 100 µM (inactive) with BT-549. Further, the GI50 in the experiment with DU-145 was 36.6 µM (inactive); in the experiment on NCI-H522, 20.4 µM (inactive); in the experiment with LOX IMVI, 40.7 µM (inactive); in the experiment on SF-268, 36 µM (inactive); in the experiment with SF-539, 54.7 µM (inactive); in the experiment on OVCAR-4, > 100 µM (inactive). In addition, the values for the GI50 in the experiment on SK-MEL-28 and with SK-MEL-5 were 96.2 µM (inactive) and 63.5 µM (inactive), respectively.

Turning to `COc1ccc(CNC(=O)[C@H](Cc2ccc(O)cn2)NC(C)=O)cc1OC`, the GI50 in the experiment on HT-29, with A498, with HOP-62, in the experiment on MDA-MB-435, in the experiment with KM12 and in the experiment with PC-3 was > 100 µM (inactive) each time. In addition, the GI50 with A549, in the experiment on COLO 205, in the experiment with SNB-75, in the experiment on T47D, in the experiment on SW-620 and with BT-549 was > 100 µM (inactive) throughout. The GI50 in the experiment on DU-145 was > 100 µM (inactive); with NCI-H522, > 93.5 µM (inactive); with LOX IMVI, > 100 µM (inactive); with SF-268, > 90.6 µM (inactive); with SF-539, > 100 µM (inactive); in the experiment on OVCAR-4, > 100 µM (inactive). The GI50 in the experiment with SK-MEL-28 and in the experiment on SK-MEL-5 was > 100 µM (inactive) in each case.

With `O=C(NO)c1ccc(OCc2ccccc2)cc1`, the GI50 in the experiment with HT-29 is 29.2 µM (inactive); in the experiment with A498, 16.3 µM (inactive); with HOP-62 it was 35.1 µM (inactive); in the experiment on MDA-MB-435 it was 29.2 µM (inactive); in the experiment with KM12 it was 25.5 µM (inactive); in the experiment on PC-3, 23.3 µM (inactive). Further, the GI50 with A549 was 33 µM (inactive); in the experiment with COLO 205, 22.8 µM (inactive); with SNB-75 it was 29.4 µM (inactive); in the experiment with T47D, 11.5 µM (inactive); with SW-620, 24.5 µM (inactive); in the experiment with BT-549, 26.5 µM (inactive). The GI50 with DU-145 was 14.3 µM (inactive); with NCI-H522, 9.62 µM (inactive); with LOX IMVI, 19.1 µM (inactive); with SF-268, 39.7 µM (inactive); with SF-539 it was 28.7 µM (inactive); with OVCAR-4, 15 µM (inactive). Further, the GI50 in the experiment with SK-MEL-28 was 28.1 µM (inactive); in the experiment on SK-MEL-5, 45.6 µM (inactive).
